Experimental data taken from ChEMBL document CHEMBL3885881, “DrugMatrix”.

Species: Rattus norvegicus
Assay: DrugMatrix - Regimen: Daily Repeat
Type: toxicity, organism-based, Sprague-Dawley
Set-up: regimen Daily Repeat, gender Male, age 6-8 weeks
Details: in vivo, po, route oral GAVAGE, vehicle .5 % CMC; for ABSOLUTE BASOPHIL / ABSOLUTE EOSINOPHIL / ABSOLUTE LYMPHOCYTE / ABSOLUTE MONOCYTE / ABSOLUTE SEGMENTED NEUTROPHIL / BASOPHIL / EOSINOPHIL / ERYTHROCYTE COUNT / HEMATOCRIT / HEMOGLOBIN / LEUKOCYTE COUNT / LYMPHOCYTE / MEAN CORPUSCULAR HEMOGLOBIN / MEAN CORPUSCULAR HEMOGLOBIN CONCENTRATION / MEAN CORPUSCULAR VOLUME / MONOCYTE / NEUTROPHIL / NUCLEATED RED BLOOD CELLS / PLATELET COUNT: tissue Blood; for ALANINE AMINOTRANSFERASE / ALBUMIN / ALKALINE PHOSPHATASE / ASPARTATE AMINOTRANSFERASE / BLOOD UREA NITROGEN / CARBON DIOXIDE / CHLORIDE / CHOLESTEROL / CREATINE PHOSPHOKINASE / CREATININE / GLUCOSE / LACTATE DEHYDROGENASE / LIPASE / POTASSIUM / SODIUM / TOTAL BILIRUBIN / TOTAL PROTEIN: tissue Plasma
[1] = 0 mg/kg, 72 h, dose level Control, time 3 day
[2] = 0 mg/kg, 120 h, dose level Control, time 5 day
[3] = 150 mg/kg, 72 h, dose level Low, time 3 day

`C[C@@H]1CC[C@H]2[C@@H](C)C(=O)O[C@@H]3O[C@@]4(C)CC[C@@H]1[C@]32OO4` [ARTEMISININ] was tested, and the “ABSOLUTE BASOPHIL” value [1] was 0 CELLS/uL, the “ABSOLUTE EOSINOPHIL” value [1] was 171.33 CELLS/uL and the “ABSOLUTE LYMPHOCYTE” value [1] was 13776.5 CELLS/uL. For the same compound, the “ABSOLUTE MONOCYTE” value [1] was 180.83 CELLS/uL, the “ABSOLUTE SEGMENTED NEUTROPHIL” value [1] was 1121.33 CELLS/uL and the BASOPHIL [1] was 0%. For the same compound, the EOSINOPHIL [1] was 1%, the “ERYTHROCYTE COUNT” value [1] was 5.56 x10E6/uL and the HEMATOCRIT [1] was 34.75%. For the same compound, the HEMOGLOBIN [1] was 13.68 G/DL, the “LEUKOCYTE COUNT” value [1] was 15.25 x10E3/uL and the LYMPHOCYTE [1] was 90.17%. The “MEAN CORPUSCULAR HEMOGLOBIN” value [1] was 24.6 pg, the “MEAN CORPUSCULAR HEMOGLOBIN CONCENTRATION” value [1] was 39.4 G/DL and the “MEAN CORPUSCULAR VOLUME” value [1] was 62.48 fL. For the same compound, the MONOCYTE [1] was 1.17%, the NEUTROPHIL [1] was 7.67% and the “NUCLEATED RED BLOOD CELLS” value [1] was 0 /100WBC. The “PLATELET COUNT” value [1] was 1342 x10E3/uL, the “ALANINE AMINOTRANSFERASE” value [1] was 49.67 u/L and the ALBUMIN [1] was 4.15 G/DL. The “ALKALINE PHOSPHATASE” value [1] was 346.83 u/L, the “ASPARTATE AMINOTRANSFERASE” value [1] was 108.17 u/L and the “BLOOD UREA NITROGEN” value [1] was 17.33 mg/dL. For the same compound, the “CARBON DIOXIDE” value [1] was 25 mmol/L, the CHLORIDE [1] was 100.83 MEQ/L and the CHOLESTEROL [1] was 66.83 mg/dL. The “CREATINE PHOSPHOKINASE” value [1] was 788 u/L, the CREATININE [1] was 0.18 mg/dL and the GLUCOSE [1] was 151.67 mg/dL. The “LACTATE DEHYDROGENASE” value [1] was 982.5 u/L, the LIPASE [1] was 10.33 u/L and the POTASSIUM [1] was 6.37 MEQ/L. For the same compound, the SODIUM [1] was 141.02 MEQ/L, the “TOTAL BILIRUBIN” value [1] was 0.18 mg/dL and the “TOTAL PROTEIN” value [1] was 5.9 G/DL. The “ABSOLUTE BASOPHIL” value [2] was 0 CELLS/uL, the “ABSOLUTE EOSINOPHIL” value [2] was 69 CELLS/uL and the “ABSOLUTE LYMPHOCYTE” value [2] was 13632.83 CELLS/uL. For the same compound, the “ABSOLUTE MONOCYTE” value [2] was 139.83 CELLS/uL, the “ABSOLUTE SEGMENTED NEUTROPHIL” value [2] was 1225 CELLS/uL and the BASOPHIL [2] was 0%. The EOSINOPHIL [2] was 0.33%, the “ERYTHROCYTE COUNT” value [2] was 5.52 x10E6/uL and the HEMATOCRIT [2] was 33.98%. For the same compound, the HEMOGLOBIN [2] was 13.22 G/DL, the “LEUKOCYTE COUNT” value [2] was 15.07 x10E3/uL and the LYMPHOCYTE [2] was 90.83%. The “MEAN CORPUSCULAR HEMOGLOBIN” value [2] was 23.95 pg, the “MEAN CORPUSCULAR HEMOGLOBIN CONCENTRATION” value [2] was 38.9 G/DL and the “MEAN CORPUSCULAR VOLUME” value [2] was 61.53 fL. For the same compound, the MONOCYTE [2] was 0.83%, the NEUTROPHIL [2] was 8% and the “NUCLEATED RED BLOOD CELLS” value [2] was 0 /100WBC. For the same compound, the “PLATELET COUNT” value [2] was 1196 x10E3/uL, the “ALANINE AMINOTRANSFERASE” value [2] was 49.17 u/L and the ALBUMIN [2] was 4.2 G/DL. The “ALKALINE PHOSPHATASE” value [2] was 352.33 u/L, the “ASPARTATE AMINOTRANSFERASE” value [2] was 89.67 u/L and the “BLOOD UREA NITROGEN” value [2] was 18 mg/dL. The “CARBON DIOXIDE” value [2] was 27.67 mmol/L, the CHLORIDE [2] was 101 MEQ/L and the CHOLESTEROL [2] was 72.83 mg/dL. For the same compound, the “CREATINE PHOSPHOKINASE” value [2] was 417.5 u/L, the CREATININE [2] was 0.18 mg/dL and the GLUCOSE [2] was 150.5 mg/dL. For the same compound, the “LACTATE DEHYDROGENASE” value [2] was 517.33 u/L, the LIPASE [2] was 9 u/L and the POTASSIUM [2] was 6.57 MEQ/L. For the same compound, the SODIUM [2] was 143.62 MEQ/L, the “TOTAL BILIRUBIN” value [2] was 0.2 mg/dL and the “TOTAL PROTEIN” value [2] was 6.08 G/DL. For the same compound, the “ABSOLUTE BASOPHIL” value [3] was 0 CELLS/uL, the “ABSOLUTE EOSINOPHIL” value [3] was 206 CELLS/uL and the “ABSOLUTE LYMPHOCYTE” value [3] was 10521.33 CELLS/uL. The “ABSOLUTE MONOCYTE” value [3] was 315 CELLS/uL, the “ABSOLUTE SEGMENTED NEUTROPHIL” value [3] was 957.67 CELLS/uL and the BASOPHIL [3] was 0%. The EOSINOPHIL [3] was 1.67%, the “ERYTHROCYTE COUNT” value [3] was 6.1 x10E6/uL and the HEMATOCRIT [3] was 36.63%. The HEMOGLOBIN [3] was 13.77 G/DL, the “LEUKOCYTE COUNT” value [3] was 12 x10E3/uL and the LYMPHOCYTE [3] was 87.67%. The “MEAN CORPUSCULAR HEMOGLOBIN” value [3] was 22.63 pg, the “MEAN CORPUSCULAR HEMOGLOBIN CONCENTRATION” value [3] was 37.6 G/DL and the “MEAN CORPUSCULAR VOLUME” value [3] was 60.1 fL. For the same compound, the MONOCYTE [3] was 2.67%, the NEUTROPHIL [3] was 8% and the “NUCLEATED RED BLOOD CELLS” value [3] was 0 /100WBC. For the same compound, the “PLATELET COUNT” value [3] was 1362.67 x10E3/uL, the “ALANINE AMINOTRANSFERASE” value [3] was 38 u/L and the ALBUMIN [3] was 4.53 G/DL. For the same compound, the “ALKALINE PHOSPHATASE” value [3] was 347.67 u/L, the “ASPARTATE AMINOTRANSFERASE” value [3] was 86.67 u/L and the “BLOOD UREA NITROGEN” value [3] was 22 mg/dL. The “CARBON DIOXIDE” value [3] was 25.33 mmol/L, the CHLORIDE [3] was 104.33 MEQ/L and the CHOLESTEROL [3] was 87.67 mg/dL. The “CREATINE PHOSPHOKINASE” value [3] was 336.33 u/L, the CREATININE [3] was 0.24 mg/dL and the GLUCOSE [3] was 145.67 mg/dL. The “LACTATE DEHYDROGENASE” value [3] was 459.33 u/L, the LIPASE [3] was 11 u/L and the POTASSIUM [3] was 6.03 MEQ/L. The SODIUM [3] was 146.83 MEQ/L and the “TOTAL BILIRUBIN” value [3] was 0.13 mg/dL.
